Reference: patent US20130303557A1, “PHARMACEUTICAL COMPOSITIONS AND METHODS OF TREATING DRY EYE DISORDERS” (PFIZER INC., priority 2010, published 2013)

Tests used:
Type in all cases: in vivo
dry-induced C57 mice = assay: Induced dry eye mouse model (scopolamine plus fans), tear production; details: at 2 days of treatment; 1 μl once a day, Formulations 3 and 5; FIGS. 7 and 8
Method: An injection was prepared comprising 2.5 mg/ml scopolamine (sigma) in injectable saline (1-1.5 ml per animal). In normal C57 mice (200-250) ul of scopolamine was injected four times every 2.5 hrs in alternating hind quarters. The mice were placed in special cages (with holes in front and back) and placed in a hood. Fans were placed in front of each cage, and turned on for 16 hours over night for five days. Measurements were taken daily.
As with Examples 4 and 5 above, animals were treated with drug or vehicle at 1 μl, once a day for 2 weeks.

MRL/Ipr dry eye mice [1] = assay: Comparative tear production, CP-690550 versus Restasis, in MRL/Ipr dry eye mice (phenol red thread); details: CP-690550 0.01% vs Restasis (cyclosporine 0.05%), 2 μl twice a day for 30 days; FIG. 3
Method: Tear measurement was done using phenol red impregnated thread (Quick Zone®) and baseline measurement was performed before each drug application. Drugs or vehicles were applied at 2 μl, two times a day.
Vehicle-treated normal C57black/6 and MRL/Ipr dry eye mice were used as normal control and dry eye control, respectively.
Control animals included normal C57Black/6 mice, and MRL/Ipr mice, treated with PBS vehicle and MRL/Ipr mice treated with Refresh Endura® (vehicle for Restasis) (5-10 mice/group).

MRL/Ipr dry eye mice [2] = assay: Dose response of CP690550 on tear production in MRL/Ipr mice (Formulations 1, 3 and 4); details: at 2 days after treatment, all comparisons, FIGS. 4-6
Method: As with Example 4 above, vehicle-treated normal C57black/6 and MRL/Ipr dry eye mice (5-10 mice/group) were used as normal control and dry eye control, respectively. […] Treatment for Formulation 1 was carried for two weeks, at […], twice a day.

For `C[C@@H]1CCN(C(=O)CC#N)C[C@@H]1N(C)c1ncnc2[nH]ccc12` [CP690550, 3-{(3R,4R)-4-Methyl-3-[methyl-(7H-pyrrolo[2,3-d]pyrimidin-4-yl)-amino]-piperidin-1-yl}-3-oxo-propionitrile], the “increase in tear production” value (dry-induced C57 mice) was “significant increase in tear production”, the “response rate as compared to Restasis” value (MRL/Ipr dry eye mice [1]) was “much faster response rate as compared to Restasis®” and the “volume of tear production compared with Restasis” value (MRL/Ipr dry eye mice [1]) was “significant improvement in the volume of tear production over Restasis®”. The “improvement in tear production” value (MRL/Ipr dry eye mice [2]) was “significant improvement in tear production”.
